Measured values published in patent publication US9809595B2 (priority 2013, dated 2017).

Tests used:
[1] = test system: Salmonella typhimurium strain SJW1103; experiment: Bacterial growth assay; assay type: cell-based; details: 5 μl of 100 mM compound in DMSO added to 10 ml LB, 303 K, OD600 read at 2, 4, 6, 8 and 10 hr; FIG. 6
Experimental: The effect of the candidate compounds on the viability of bacteria cultures were first tested before analyzing their effect on the flexibility of FlhBC. 80 compounds out of the 237 compounds were purchased from KISHIDA CHEMICAL Co., Ltd according to the ranking. The Salmonella typhimurium strain SJW1103 was grown in LB medium at 303 K. Overnight cultures were diluted in Fresh LB medium to an optical density at 600 nm (OD600) of 0.1. Each of 5 μl of 100 mM candidate compounds solubilized in DMSO or DMSO alone as a control was added into 10 ml LB medium in 50-ml volume polypropylene conical tubes. For obtaining growth curves of the cell under the presence of each chemical, 0.2 ml of the culture volume were removed at every 2 h (2, 4, 6, 8 and 10 hr) and diluted with 1 ml of LB to measure absorbance at OD600.

[2] = test system: secretion of FlgD; experiment: Secretion assay (Western blot of culture supernatant with anti-FlgD antibody); assay type: cell-based, Salmonella typhimurium; details: supernatant of 8.0 hr culture from the growth assay, strain SJW1103; FIG. 7a and 7b
Experimental: Then, effects of the selected compounds on different type III secretion phenotypes were assessed. 1 ml of the cell suspensions of 8.0 hr culture in the above-growth assay were centrifuged at 13,200 rpm (16,100 g) for 10 min. The supernatant fractions (0.9 ml) were fractionated into new tubes and mixed with 100% trichloroacetic acid thoroughly. The fractions were kept on ice at least 1 h to precipitate secreted proteins. After centrifugation at 15,400 rpm for 30 min, the precipitated supernatant fractions were resuspended in 0.02 ml of 1 M Tris base and stored −30° C. until use. Samples for SDS-PAGE analysis were prepared by adding 5× SDS loading Buffer and then heat at 95° C. for 5 min. SDS-PAGE analyses were carried out at the condition of 200V for 30 min using premade gels purchased from Bio-rad. Electro-blotting onto PVDF membrane was performed with iBlot from Invitrogen and the membranes were developed with Chromogenic Immuno-detection Kit (Invitrogen) using a custom antibody raised against FlgD, a flagellar protein (from Prof. Keiichi Namba, Osaka University). Images were digitized as gray scale color with ChemDoc (Bio-rad). Kaleidoscope (Bio-rad) was used as a molecular marker.

SMILES	effect on bacterial growth (growth curve, OD600) [1]	inhibition of FlgD secretion (type III secretion system) [2]
COc1cc(Cc2cnc(N)nc2N)cc(OC)c1OC [compound 64, 5-(3,4,5-Trimethoxybenzyl)pyrimidine-2,4-diamine]	slight growth delay	inhibit the secretion of FlgD
Cn1c(=O)c2c(ncn2CC(O)CO)n(C)c1=O (stereo not shown) [compound 47, 7-(2,3-dihydroxypropyl)-1,3-dimethyl-3,7-dihydro-1H-purine-2,6-dione]	slight growth delay	inhibit the secretion of FlgD
